# Measured values from article PMC8151143.
# Target: T1, rPtCLec2 (PtCLec2) (Portunus trituberculatus, UniProt A0A7S5QMV0)
# T1 construct: gene CLec2; mature peptide (signal peptide residues 1-19 removed) in pET-32a, N-terminal Trx and His tags kept, about 50 kDa; single CRD with QPD motif
# T1 sequence (A0A7S5QMV0 20-267): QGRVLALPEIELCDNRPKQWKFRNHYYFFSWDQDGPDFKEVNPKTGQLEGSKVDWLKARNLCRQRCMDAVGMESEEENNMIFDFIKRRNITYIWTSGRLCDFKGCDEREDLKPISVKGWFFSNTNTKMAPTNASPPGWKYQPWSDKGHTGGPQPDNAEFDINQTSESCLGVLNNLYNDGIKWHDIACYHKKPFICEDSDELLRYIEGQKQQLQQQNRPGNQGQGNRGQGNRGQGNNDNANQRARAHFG
# Assay: inhibition of agglutination of FITC-labelled Pseudomonas aeruginosa, fluorescence microscopy
# Type: binding
# Details: 10 mM CaCl2; 25-200 mM sugar tested; rPtCLec2 100 ug/mL; 30 min preincubation; indirect (competition) read-out
row,SMILES,minimum concentration of carbohydrate that could completely inhibit bacterial agglutinating activity
1,OC[C@H]1OC(O)[C@@H](O)[C@@H](O)[C@@H]1O (stereo partly drawn) [D-mannose],"inhibited with the increasing concentration of LPS, D-galactose, and D-mannose"
2,OC[C@H]1OC(O)[C@H](O)[C@@H](O)[C@H]1O (stereo partly drawn) [D-galactose],"inhibited with the increasing concentration of LPS, D-galactose, and D-mannose"
